Patent US20250129430A1, “HIGH ATP-AFFINITY PROTEIN AS THERAPEUTIC TARGET FOR INTRACTABLE CANCER MOLECULAR SUBTYPES AND INHIBITOR THEREOF” (VeraVerse Co., Ltd., priority 2021, published 2025)

Legend:
Assay in all cases: Cell viability drug screen, 12-point dose-response AUC
Assay type in all cases: cell-based, human
FU97 = system: FU97; design: Average Area Under the Viability Curve (AUC), AUC norm value: scale not given here; conditions: FU97 cells; 72 hours
Procedure, shortened: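 Trapezoidal AUC of a 12-point, DMSO-normalized dose-response curve. Luminescent viability was measured after 72 h of exposure at 37° C to half-log serial dilutions (0.5% DMSO control), dosed 24 h after plating FU97 cells at 5×10^3 per well.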

NCC59 = NCC59 cells; 72 hours
Procedure, shortened: (§1)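 AUC values represent the area under DMSO-normalized 12-point curves, computed by trapezoid rule and averaged over repeated experiments. Each EMT-type gastric line was exposed to half-log serial concentrations for 72 h at 37 °C, and viability was measured with a Glo luminescence kit.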

SNU1 = SNU1 cells; 72 hours
Procedure, shortened: as §1

SNU16 = SNU16 cells; 72 hours
Procedure, shortened: as §1

NCI_N87 = NCI_N87 cells; 72 hours
Procedure, shortened: as §1

KATO3 = KATO3 cells; 72 hours
Procedure, shortened: as §1

OCUM1 = OCUM1 cells; 72 hours
Procedure, shortened: as §1

YCC11 = YCC11 cells (SEM subtype); 72 hours
Procedure, shortened: as §1

SNU1967 = SNU1967 cells; 72 hours
Procedure, shortened: as §1

NCC20 = NCC20 cells; 72 hours
Procedure, shortened: as §1

NCC24 = NCC24 cells; 72 hours
Procedure, shortened: as §1

SNU484 = SNU484 cells (SEM subtype); 72 hours
Procedure, shortened: as §1

MKN1 = MKN1 cells; 72 hours
Procedure, shortened: as §1

NCC19 = NCC19 cells; 72 hours
Procedure, shortened: as §1

SNU1750 = SNU1750 cells (SEM subtype); 72 hours
Procedure, shortened: as §1

SNU620 = SNU620 cells; 72 hours
Procedure, shortened: as §1

SNU668 = SNU668 cells (SEM subtype); 72 hours
Procedure, shortened: as §1

SNU638 = SNU638 cells; 72 hours
Procedure, shortened: as §1

SNU216 = SNU216 cells (non-SEM subtype); 72 hours
Procedure, shortened: (§2)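 AUC comes from 12-point half-log dose–response curves, normalized to DMSO-treated cells and integrated trapezoidally, repeats averaged. Luminescent viability read after 72 h compound exposure at 37 °C; cells plated 5×10^3 per well 24 h before dosing.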

MKN28 = MKN28 cells; 72 hours
Procedure, shortened: as §1

YCC2 = YCC2 cells; 72 hours
Procedure, shortened: as §1

MKN74 = MKN74 cells; 72 hours
Procedure, shortened: as §2

SNU601 = SNU601 cells; 72 hours
Procedure, shortened: as §1

SK4 = SK4 cells (SEM subtype); 72 hours
Procedure, shortened: as §1

MKN45 = MKN45 cells (non-SEM subtype); 72 hours
Procedure, shortened: as §2

Hs746T = Hs746T cells (SEM subtype); 72 hours
Procedure, shortened: as §1

SNU719 = SNU719 cells; 72 hours
Procedure, shortened: as §2

AGS = AGS cells (non-SEM subtype); 72 hours
Procedure, shortened: as §2

YCC3 = YCC3 cells; 72 hours
Procedure, shortened: as §1

SMILES | Average Area Under the Viability Curve (AUC), AUC norm value (FU97) | Average Area Under the Viability Curve (AUC), AUC norm value (NCC59) | Average Area Under the Viability Curve (AUC), AUC norm value (SNU1) | Average Area Under the Viability Curve (AUC), AUC norm value (SNU16) | Average Area Under the Viability Curve (AUC), AUC norm value (NCI_N87) | Average Area Under the Viability Curve (AUC), AUC norm value (KATO3) | Average Area Under the Viability Curve (AUC), AUC norm value (OCUM1) | Average Area Under the Viability Curve (AUC), AUC norm value (YCC11) | Average Area Under the Viability Curve (AUC), AUC norm value (SNU1967) | Average Area Under the Viability Curve (AUC), AUC norm value (NCC20) | Average Area Under the Viability Curve (AUC), AUC norm value (NCC24) | Average Area Under the Viability Curve (AUC), AUC norm value (SNU484) | Average Area Under the Viability Curve (AUC), AUC norm value (MKN1) | Average Area Under the Viability Curve (AUC), AUC norm value (NCC19) | Average Area Under the Viability Curve (AUC), AUC norm value (SNU1750) | Average Area Under the Viability Curve (AUC), AUC norm value (SNU620) | Average Area Under the Viability Curve (AUC), AUC norm value (SNU668) | Average Area Under the Viability Curve (AUC), AUC norm value (SNU638) | Average Area Under the Viability Curve (AUC), AUC norm value (SNU216) | Average Area Under the Viability Curve (AUC), AUC norm value (MKN28) | further results
CCOc1cc2ncc(C#N)c(Nc3ccc(OCc4ccccn4)c(Cl)c3)c2cc1NC(=O)/C=C/CN(C)C [Neratinib (HKI-272), Neratinib] | −0.2016 | 1.9785 | 1.038 | −1.491 | −5.051 | 1.505 | 1.056 | −1.333 | 0.8381 | −1.6785 | 1.205 | −1.2895 | −0.4985 | 2.052 | −0.4123 | 1.117 | 0.8456 | 0 | −2.1011 | 0.1864 | Average Area Under the Viability Curve (AUC), AUC norm value (YCC2): −0.1749; Average Area Under the Viability Curve (AUC), AUC norm value (MKN74): −1.144; Average Area Under the Viability Curve (AUC), AUC norm value (SNU601): 0.802; Average Area Under the Viability Curve (AUC), AUC norm value (SK4): −1.282; Average Area Under the Viability Curve (AUC), AUC norm value (MKN45): 3.029; Average Area Under the Viability Curve (AUC), AUC norm value (Hs746T): −0.2204; Average Area Under the Viability Curve (AUC), AUC norm value (SNU719): 1.894; Average Area Under the Viability Curve (AUC), AUC norm value (AGS): −0.9315; Average Area Under the Viability Curve (AUC), AUC norm value (YCC3): 0.3013
O=C(Nc1ccc([N+](=O)[O-])cc1Cl)c1cc(Cl)ccc1O [Niclosamide (Niclocide), Niclosamide] | −1.793 | 1.141 | −1.673 | −3.062 | 2.802 | 1.591 | 0 | −0.8753 | 0.1419 | 0.2177 | 0.68 | −1.164 | 0.3991 | 2.917 | −0.8987 | 0.8518 | −0.9084 | −1.105 | −0.5185 | −0.3809 | Average Area Under the Viability Curve (AUC), AUC norm value (YCC2): 0.6628; Average Area Under the Viability Curve (AUC), AUC norm value (MKN74): −1.62; Average Area Under the Viability Curve (AUC), AUC norm value (SNU601): 4.911; Average Area Under the Viability Curve (AUC), AUC norm value (SK4): −1.038; Average Area Under the Viability Curve (AUC), AUC norm value (MKN45): 1.159; Average Area Under the Viability Curve (AUC), AUC norm value (Hs746T): −0.6858; Average Area Under the Viability Curve (AUC), AUC norm value (SNU719): 2.503; Average Area Under the Viability Curve (AUC), AUC norm value (AGS): −1.094; Average Area Under the Viability Curve (AUC), AUC norm value (YCC3): 1.8253
COC(=O)Nc1nc2ccc(C(=O)c3cccs3)cc2[nH]1 [Nocodazole] | 0.3797 | 3.0345 | −0.7242 | −1.507 | −0.7843 | 3.188 | 0.7248 | −0.8279 | −0.07292 | −1.695 | 0 | −0.8136 | −0.6519 | 0.8717 | 0.7502 | −0.735 | −0.1188 | −0.1875 | 2.032 | −0.1478 | Average Area Under the Viability Curve (AUC), AUC norm value (YCC2): 1.3363; Average Area Under the Viability Curve (AUC), AUC norm value (MKN74): 0.7081; Average Area Under the Viability Curve (AUC), AUC norm value (SNU601): 1.743; Average Area Under the Viability Curve (AUC), AUC norm value (SK4): −0.374; Average Area Under the Viability Curve (AUC), AUC norm value (MKN45): 2.005; Average Area Under the Viability Curve (AUC), AUC norm value (Hs746T): 1.28; Average Area Under the Viability Curve (AUC), AUC norm value (SNU719): 4.976; Average Area Under the Viability Curve (AUC), AUC norm value (AGS): −1.573; Average Area Under the Viability Curve (AUC), AUC norm value (YCC3): 3.066
